From patent US20210024879A1, “BIOSYNTHETIC ACTIVITY OF THE ANAPLASMA PHAGOCYTOPHILUM AND EHRLICHIA CHAFFEENSIS PHAGOSOME IN A HOST CELL-FREE MEDIUM” (Kansas State University Research Foundation, priority 2018, published 2021)

How the values were obtained:
[1] = tested on: E. chaffeensis cell-free organisms (DC and RC fractions); test: Protein synthesis by 35S-cysteine-methionine incorporation in cell-free E. chaffeensis in axenic medium; format: cell-based, Ehrlichia chaffeensis; conditions: for protein biosynthesis with different energy sources: RC form recovered from DH82 cultures, axenic medium supplemented with the carbon source, FIGS. 5A and 5B; for protein synthesis (35S Cys-Met incorporation) when inhibitor included in the media: axenic media with G6P, 24 h, renografin-purified organisms, FIG. 1
Protocol: Protein synthesis by ^35S-cysteine-methionine incorporation: Protein synthesis in cell-free purified fractions of E. chaffeensis was measured by incorporation of ^35S-Cys-Met (Perkin Elmer, Waltham, Mass.) as described by Omsland, A., et al., in Developmental stage-specific metabolic and transcriptional activity of Chlamydia trachomatis in an axenic medium. Proc Natl Acad Sci USA. […] For normalization of bacterial total protein content, the suspension of E. chaffeensis cell-free fractions were lysed in 1% (wt/vol) SDS for 5 minutes at 100° C. and the total protein concentration was determined using Protein Assay kit (Bio-Rad, Hercules, Calif.). Subsequently, the suspensions of E. chaffeensis cell-free fractions were equally split into micro-centrifuge tubes at the amount of 30 μg total protein. Partially opened micro-centrifuge tubes containing 500 μL of medium supplemented with 70 μCi of ^35S-Cys-Met were incubated at 37° C. for 24 hours in a tri-gas incubator set to maintain 2.5% O2. E. chaffeensis cell-free organisms were pelleted at the end of incubation by centrifugation at 15,000×g for 15 minutes at 4° C., washed with K-36 buffer (0.05M K2HPO4, 0.05M KH2PO4, 0.1M KCl, 0.15M NaCl, pH7.0) twice, and disrupted by adding 30 μL of 2×SDS-PAGE sample buffer and by boiling for 5 minutes. Ten μL of lysate each was then transferred to a tube containing 5 mL of biosafe liquid II and used for quantification of ^35S-Cys-Met incorporation using the protocol 4 (^35S) in a liquid scintillation counter (TRI-CARB 2100TR, PerkinElmer, Waltham, Mass.). For visualizing the radiolabel incorporation into bacterial proteins, equal volumes of sample lysates were also separated in an SDS/PAGE and the gel was dried and exposed to an X-ray film. Similarly, cell-free growth experiments were carried out in the absence of ^35S-Cys-Met, resolved on an SDS-PAGE gel, and stained using silver nitrate staining kit (Pierce/ThermoFisher Scientific) as per the manufacturer's recommendations.

[2] = tested on: E. chaffeensis cell-free phagosomes; test: 35S Cys-Met incorporation into cell-free phagosomes; format: cell-based, Ehrlichia chaffeensis; conditions: energy source or CHL in axenic medium
Protocol: (§1) Protein synthesis by ^35S-cysteine-methionine incorporation: Protein synthesis in cell-free purified phagosomes of A. phagocytophilum or E. chaffeensis was measured by incorporation of […] (Perkin Elmer, Waltham, Mass.) as described previously. For normalization of bacterial total protein content, the suspension of the cell-free phagosomes were lysed in 1% (wt/vol) SDS for 5 minutes at 100° C. and the total protein concentration was determined using Protein Assay kit (Bio-Rad, Hercules, Calif.). Subsequently, the suspensions of cell-free phagosomes were equally split into micro-centrifuge tubes at the amount of 30 μg total protein. Partially opened micro-centrifuge tubes containing 500 μL of medium supplemented with 70 μCi of ^35S-Cys-Met were incubated 24 hours at 37° C. in a tri-gas incubator set to maintain 2.5% O2. The cell-free organisms were pelleted at the end of incubation by centrifugation at 15,000×g for 15 minutes at 4° C., washed with K-36 buffer (0.05M K2HPO4, 0.05M KH2PO4, 0.1M KCl, 0.15M NaCl, pH7.0) twice, and disrupted by adding 30 μL of 2×SDS-PAGE sample buffer and by boiling for 5 minutes. Ten μL of lysate each was then transferred to a tube containing 5 mL of biosafe liquid II and used for quantification of ^35S-Cys-Met incorporation using the protocol 4 (^35S) in a liquid scintillation counter (TRI-CARB 2100TR, PerkinElmer, Waltham, Mass.). For visualizing the of radiolabel incorporation into phagosomes proteins, equal volumes of sample lysates were also separated in an SDS/PAGE and the gel was dried and exposed to an X-ray film. Similarly, cell-free growth experiments were carried out in the absence of added ^35S-Cys-Met, resolved on an SDS-PAGE gel and stained using silver nitrate staining kit (Pierce/ThermoFisher Scientific) as per the manufacturer's recommendations.

[3] = tested on: A. phagocytophilum cell-free phagosomes; test: as above; format: cell-based, Anaplasma phagocytophilum; conditions: energy source or CHL in axenic medium
Protocol: as §1

[4] = tested on: A. phagocytophilum cell-free phagosome; test: Protein biosynthesis by protein fractionation, silver stained SDS polyacrylamide gel; format: cell-based, Anaplasma phagocytophilum; conditions: FIGS. 15A and 15B, CHL-containing lanes
Protocol: Sodium dodecyl sulfate polyacrylamide gel electrophoresis: Five μL of NuPAGE LDS sample buffer and 2 μL of NuPAGE reducing agent (Invitrogen/ThermoFisher Scientific) were added to each of 10 μL of sample solution following cell-free incubation experiments in the axenic medium, boiled for 5 minutes, and then loaded onto a Mini-PROTEAN Precast Bis-Tris 4% to 14% gels (Bio-rad, Hercules, Calif.) and subjected to electrophoresis (100 mA/gel for 60 minutes). The gels were then stained with Silver staining kit (Pierce/ThermoFisher Scientific) according to the manufacturer's recommendations.
Western blot analysis to assess protein synthesis: For detection of the DnaK and P28 proteins of E. chaffeensis or the Dnak of A. phagocytophilum, the above described electrophoresed proteins were transferred onto a nitrocellulose membrane (Thermo Fisher Scientific, Waltham, Mass.) by subjecting to electro-blotting using an electrophoretic transfer unit (Bio-Rad). Protein transfer buffer was prepared as per the manufacturer's instructions and used in the protein transfer protocols. Subsequently, E. chaffeensis DnaK and P28 expressions were assessed using the polyclonal rabbit antisera raised against a recombinant E. chaffeensis proteins for DnaK and P28, respectively. […]

With `O=C[C@H](O)[C@@H](O)[C@H](O)[C@H](O)COP(=O)(O)O` [G6P, glucose 6-phosphate] as the compound, how does the “protein biosynthesis with different energy sources” value [1] read?
Its value is “supported the protein biosynthesis similarly”.

What about the “incorporation of 35S Cys-Met” value ([2]; FIG. 12B photograph) of the same compound?
The value was “showed incorporation”.

What about the “incorporation of 35S Cys-Met” value ([2]; FIG. 12D graph) of the same compound?
Its value is “showed incorporation”.

What about the “incorporation of 35S Cys-Met” value ([3]; FIG. 12A photograph) of the same compound?
Its value is “showed incorporation”.

What about the “incorporation of 35S Cys-Met” value ([3]; FIG. 12C graph) of the same compound?
The value was “showed incorporation”.

With `Nc1ncnc2c1ncn2[C@@H]1O[C@H](COP(=O)(O)OP(=O)(O)OP(=O)(O)O)[C@@H](O)[C@H]1O` [ATP, adenosine triphosphate] as the compound, how does the “incorporation of 35S Cys-Met” value ([2]; FIG. 12B photograph) read?
Its value is “showed incorporation”.

And the “incorporation of 35S Cys-Met” value ([2]; FIG. 12D graph)?
Its value is “showed incorporation”.

And the “incorporation of 35S Cys-Met” value ([3]; FIG. 12A photograph)?
Its value is “showed incorporation”.

What about the “incorporation of 35S Cys-Met” value ([3]; FIG. 12C graph) of the same compound?
Its value is “showed incorporation”.

Which “protein biosynthesis with different energy sources” value [1] does the source give for `CC(=O)[O-].[Na+]` [sodium acetate] here?
Its value is “supported the protein biosynthesis similarly”.

Which results are given for `O=C(N[C@H](CO)[C@H](O)c1ccc([N+](=O)[O-])cc1)C(Cl)Cl` [CHL, chloramphenicol, reference compound]?
protein synthesis (35S Cys-Met incorporation) when inhibitor included in the media [1]: abolished; incorporation of 35S Cys-Met ([2]; FIG. 12B photograph): no incorporation; incorporation of 35S Cys-Met ([2]; FIG. 12D graph): no incorporation; incorporation of 35S Cys-Met ([3]; FIG. 12A photograph): no incorporation; incorporation of 35S Cys-Met ([3]; FIG. 12C graph): no incorporation; protein synthesis (protein abundance, silver stained gel) [4]: no synthesis

`O[C@H](CS)[C@H](O)CS` (racemic) [DTT, Dithiothreitol] was tested. Which “impact of exclusion of reducing agent on protein biosynthesis” value ([1]; axenic medium with G6P, absence of DTT, RC fraction) did it give?
Its value is “only a marginal negative effect”.

With `O=C(O)CCC(=O)C(=O)O` [alpha ketoglutarate] as the compound, how does the “protein biosynthesis with different energy sources” value [1] read?
Its value is “supported the protein biosynthesis similarly”.

Which “protein synthesis (35S Cys-Met incorporation) when inhibitor included in the media” value [1] does the source give for `CO[C@H]1/C=C/O[C@@]2(C)Oc3c(C)c(O)c4c(O)c(c(/C=N/N5CCN(C)CC5)c(O)c4c3C2=O)NC(=O)/C(C)=C\C=C\[C@H](C)[C@H](O)[C@@H](C)[C@@H](O)[C@@H](C)[C@H](OC(C)=O)[C@@H]1C` [rifampin, reference compound] here?
Its value is “abolished”.
